These results are taken from BindingDB's records for doi:10.1016/j.ejmech.2020.113121 (Virginia Tech, 2021).

As usually defined, the EC50 is the concentration that produces a half-maximal response.

The nature of this test: Inhibition of recombinant human Sphk2 expressed in yeast strain KYA1 assessed as increase in yeast growth measured after 24 hrs.

With `CCCCCCCCCn1ccc2cc(-c3noc([C@@H]4CCCN4C(=N)N)n3)ccc21`, the EC50 was found to be 170 nM.
